Experiments:
MCAO forebrain ischemia [1] = assay: MCAO forebrain ischemia rats, infarction area, nerve regeneration, learning and memory (Example 6); type: in vivo; conditions: 100 mg vinpocetine/edaravone/oxiracetam per kg, intragastric, 7 days after administration
Description: In addition, 70 rats of MCAO forebrain ischemia were prepared, and they were administrated with solvent saline, or administrated with LXN6, LXN7 or LXN8, containing vinpocetine, edaravone or oxiracetam, respectively, at a dosage of 100 mg vinpocetine/edaravone/oxiracetam per kg body weight, or administrated with vinpocetine, edaravone or oxiracetam at a dosage of 100 mg/kg.
Intragastric administration at an amount of 20 ml/kg was conducted, for 10 rats per group; Animals were sacrificed 7 days after administration, to observe the improvement rate of cerebral infarction area and the improvement rate of nerve regeneration, learning and memory ability.

[2] = Vinpocetine, edaravone, oxiracetam in blood and brain tissue 0.5 h after intragastric administration, UPLC-MS (Example 6); type: in vivo; conditions: rat, oral, SD rats, intragastric 100 mg/kg
Description: Treatment Group: LXN6, LXN7, LXN8 were made into suspensions respectively. Five SD rats were administered the suspensions at the dose of 100 mg/kg and the volume of 20 ml/kg by intragastric administration;
Control group: vinpocetine, edaravone, oxiracetam were made into suspension. Five SD rats were administered the suspension at the dose of 100 mg/kg and the volume of 20 ml/kg by intragastric administration;
The rats were drewd blood 0.5 h after administration, then sacrificed under anaesthesia. Brain tissues were taken to prepare brain homogenates. The content of active ingredient in the blood and brain tissues was detected by UPLC-MS.

[3] = cited from earlier work
[4] = test system: 6-hydroxydopamine PD models; assay: 6-hydroxydopamine PD model rats, behavioural indexes; type: in vivo; conditions: 6-hydroxydopamine PD rats, 100 mg/kg levodopa by gavage, 15 days
Description: Animals were administered for 15 days, to observe the changes of five indexes, including slow-moving test, grasping experiment, tail stiffness, change of tonic symptoms and tremor test.

Parkinson's disease = assay: Clinical treatment of Parkinson's disease (LXN9, LXN10, levodopa); type: in vivo, human
Source text: (1) Clinical Data and Methods • Same as above.
Profile of patients: All selected patients were from department of neurology, which diagnosed with Parkinson's disease according to the Parkinson's disease diagnostic criteria in clinical examination during 2010-2014. a total of 120 cases, including 66 males, 54 females; aged 50-78 years, and 62.8 years on average, with the shortest duration of 1 year, and longest duration of 13 years, 3.6 years on average.
Levodopa tablet group: (specification of 250 mg/tablet) 1 tablet/time, 3 times/d.
LXN 10 capsule group: 250 mg/capsule, 1 capsule per time, 3 times a day.
Fifteen days as a course in all groups, a total of 9 months for medication; and during the period, other drugs regulating cerebral vasodilation, brain cell metabolism and neurological functions were discontinued. […]

[5] = Levodopa in blood and brain tissues 0.5 h after intragastric administration, UPLC-MS (Example 7); type: in vivo; conditions: rat, oral, SD rats, intragastric 100 mg/kg levodopa
Description: Five SD rats were administered the suspension at the dose of 100 mg/kg levodopa and the volume of 20 ml/kg by intragastric administration;
Control group: The levodopa was made into suspension. Five SD rats were administered the suspension at the dose of 100 mg/kg and the volume of 20 ml/kg by intragastric administration;
The rats were drew blood 0.5 h after administration, and then sacrificed under anaesthesia. Brain tissues were taken to prepare brain homogenates. The content of active ingredient in the blood and brain tissues was detected by UPLC-MS.

MCAO forebrain ischemia [6] = assay: MCAO forebrain ischemia rats, improvement rate of cerebral infarction area (Example 1); type: in vivo; conditions: gavage, 7 days after administration
Description: In addition, […] of MCAO forebrain ischemia were prepared, and they were administered solvent saline, 100 mg/kg LXN1 or ginsenoside Rb1 by gavage at 20 ml/kg, 10 rats per group; Animals were sacrificed 7 days after administration, to observe the improvement rate of cerebral infarction area.

[7] = Rb1 in blood and brain tissues 0.5 h after intragastric administration, UPLC-MS (Example 1); type: in vivo; conditions: SD rats, equivalent to ginsenoside Rb1 100 mg/kg, 0.5 h after administration
Description: Treatment Group: The LXN1-1 and LXN1-2 were made into suspension, administered to SD rats by intragastric administration. Five rats were given 20 ml/kg according to the dose of 125/150 mg/kg (equivalent to ginsenoside Rb1 100 mg/kg);
Control group: ginsenoside […] extract was made into suspension, administered to SD rats by intragastric administration. Five rats were given ginsenoside Rb1 at the volume of 20 ml/kg according to the dose of 100 mg/kg;
The rats were drew blood 0.5 h after administration and then sacrificed under anaesthesia. Brain tissues were taken to prepare brain homogenates. The content of TCM active ingredient in the blood and brain tissues was detected by UPLC-MS.

[8] = test system: 4-VO local cerebral ischemia; assay: 4-VO local cerebral ischemia rats, nerve regeneration, learning and memory (Example 3); type: in vivo; conditions: 4-VO rats, gavage, 7 days after administration
Description: In addition, 40 rats of 4-VO local cerebral ischemia were prepared and they were administered with solvent saline, 100 mg/kg […], […] and stilbene glucoside by gavage at the volume of 20 ml/kg, 10 rats per group; Animals were sacrificed 7 days after administration, to observe the improve rate of nerve regeneration, learning and memory.

[9] = Stilbene glucoside in blood and brain tissues 0.5 h after intragastric administration, UPLC-MS (Example 3); type: in vivo; conditions: SD rats, 100 mg/kg stilbene glucoside, 0.5 h after administration
Description: Treatment Group: LXN2-1 and LXN2-2 were made into suspension. 5 SD rats were administered the suspension with the dose of 100 mg/kg stilbene glucoside and the volume of 20 ml/kg by intragastric administration;
Control group: stilbene glucoside extract was made into suspension. 5 SD rats were administered the suspension at the dose of 100 mg/kg stilbene glucoside and the volume of 20 ml/kg by intragastric administration;
The rats were drew blood 0.5 h after administration and then sacrificed under anaesthesia. Brain tissues were taken to prepare brain homogenates. The content of stilbene glucoside in the blood and brain tissues were detected by UPLC-MS.

## CC1=NN(c2ccccc2)C(=O)C1 [Edaravone, edaravone]
MCAO forebrain ischemia [1]
  Improvement rate of learning and memory: 45.1
  Infarction area: 24.1%
  Nerve regeneration rate: 80%
  Space exploration distance: 51.0 cm
[2]; blood, read-out: Edaravone content in the blood
  concentration at 0.5 h: 58300 ng/mL
[2]; brain, read-out: Edaravone content in the brain tissue
  concentration at 0.5 h: 128 ng/mL

## COc1ccc([C@@H]2CC(=O)c3c(O)cc(O[C@@H]4O[C@H](CO[C@@H]5O[C@@H](C)[C@H](O)[C@@H](O)[C@H]5O)[C@@H](O)[C@H](O)[C@H]4O)cc3O2)cc1O [Hesperidin]
[3]
  solubility in water: insoluble in water

## O=c1c(O)c(-c2ccc(O)cc2)oc2cc(O)cc(O)c12 [Kaempferol]
[3]
  solubility in water: slightly soluble in water

## N[C@@H](Cc1ccc(O)c(O)c1)C(=O)O [Levodopa, levodopa]
[4]
  Duration of slow-moving test: 15.5 min
  EMG group discharge frequency: 3.1 times/sec
  Grip Test Duration: 40.1 min
  Muscle tremor frequency: 10.1 times, minutes
  tail stiffness time: 10.2 min
Parkinson's disease; PD patients, n=40
  Daily Living Activity (UPDRS-II) Score, 1 month after treatment: 14.12 ± 5.31
  Daily Living Activity (UPDRS-II) Score, 3 months after treatment: 12.49 ± 5.10
  Daily Living Activity (UPDRS-II) Score, 6 months after treatment: 11.12 ± 3.31
  Daily Living Activity (UPDRS-II) Score, 12 months after treatment: 10.32 ± 3.31
  Daily Living Activity (UPDRS-II) Score, Before treatment: 15.61 ± 5.71
  daily life satisfaction (LSIB) scores, 1 month after treatment: 13.11 ± 3.92
  daily life satisfaction (LSIB) scores, 3 months after treatment: 14.91 ± 3.16
  daily life satisfaction (LSIB) scores, 6 months after treatment: 16.85 ± 3.15
  daily life satisfaction (LSIB) scores, 12 months after treatment: 17.24 ± 3.16
  daily life satisfaction (LSIB) scores, Before treatment: 12.59 ± 2.02
  motor complications (UPDRS-IV) scores, 1 month after treatment: 2.93 ± 0.86
  motor complications (UPDRS-IV) scores, 3 months after treatment: 2.46 ± 0.61
  motor complications (UPDRS-IV) scores, 6 months after treatment: 2.15 ± 0.56
  motor complications (UPDRS-IV) scores, 12 months after treatment: 1.79 ± 0.56
  motor complications (UPDRS-IV) scores, Before treatment: 3.59 ± 1.02
  motor function examination (UPDRS-III) scores, 1 month after treatment: 34.16 ± 7.91
  motor function examination (UPDRS-III) scores, 3 months after treatment: 28.91 ± 6.61
  motor function examination (UPDRS-III) scores, 6 months after treatment: 24.85 ± 6.56
  motor function examination (UPDRS-III) scores, 12 months after treatment: 21.15 ± 6.56
  motor function examination (UPDRS-III) scores, Before treatment: 37.99 ± 10.23
  psychiatric, behavioral, and emotional scores (UPDRS-1), 1 month after treatment: 3.15 ± 0.81
  psychiatric, behavioral, and emotional scores (UPDRS-1), 3 months after treatment: 2.29 ± 0.73
  psychiatric, behavioral, and emotional scores (UPDRS-1), 6 months after treatment: 1.85 ± 0.53
  psychiatric, behavioral, and emotional scores (UPDRS-1), 12 months after treatment: 1.79 ± 0.59
  psychiatric, behavioral, and emotional scores (UPDRS-1), Before treatment: 3.59 ± 1.02
Parkinson's disease; clinically cured, markedly effective and effective cases
  Curative effect for PD: Overall response rate (ORR): 80%
Parkinson's disease; of 40 cases
  Curative effect for PD: Clinically cured %: 0%
  Curative effect for PD: Clinically cured n: 0
  Curative effect for PD: Effective %: 32.2%
  Curative effect for PD: Effective n: 13
  Curative effect for PD: Ineffective %: 20.0%
  Curative effect for PD: Ineffective n: 8
  Curative effect for PD: Markedly effective %: 47.8%
  Curative effect for PD: Markedly effective n: 19
[5]; blood, read-out: levodopa Content in the blood
  concentration at 0.5 h: 114000 ng/mL
[5]; brain, read-out: levodopa Content in the brain tissues
  concentration at 0.5 h: 284 ng/mL

## NC(=O)CN1CC(O)CC1=O (stereo not shown) [Oxiracetam, oxiracetam]
MCAO forebrain ischemia [1]
  Improvement rate of learning and memory: 56.9
  Infarction area: 24.5%
  Nerve regeneration rate: 85%
  Space exploration distance: 54.0 cm
[2]; blood, read-out: Oxiracetam content in the blood
  concentration at 0.5 h: 82300 ng/mL
[2]; brain, read-out: Oxiracetam content in the brain tissue
  concentration at 0.5 h: 173 ng/mL

## CC(C)=CCC[C@](C)(O[C@@H]1O[C@H](CO[C@@H]2O[C@H](CO)[C@@H](O)[C@H](O)[C@H]2O)[C@@H](O)[C@H](O)[C@H]1O)[C@H]1CC[C@]2(C)[C@@H]1[C@H](O)C[C@@H]1[C@@]3(C)CC[C@H](O[C@@H]4O[C@H](CO)[C@@H](O)[C@H](O)[C@H]4O[C@@H]4O[C@H](CO)[C@@H](O)[C@H](O)[C@H]4O)C(C)(C)[C@@H]3CC[C@]12C [Rb1, ginsenoside Rb1]
MCAO forebrain ischemia [6]
  Improvement rate of cerebral infarction area: 22.1 ± 9.1%
[7]
  Rb1 content in brain tissues: 4.12 ± 1.13 ng/g
  Rb1 plasma concentration: 3.35 ± 0.68 µg/mL

## C[C@@H]1O[C@@H](OC[C@H]2O[C@@H](Oc3c(-c4ccc(O)c(O)c4)oc4cc(O)cc(O)c4c3=O)[C@H](O)[C@@H](O)[C@@H]2O)[C@H](O)[C@H](O)[C@H]1O [Rutin]
[3]; boiling water
  solubility in boiling water: soluble in boiling water
[3]
  solubility in water: not soluble in water

## CCOC(=O)C1=C[C@]2(CC)CCCN3CCc4c(n1c1ccccc41)[C@@H]32 [Vinpocetine, vinpocetine]
MCAO forebrain ischemia [1]
  Improvement rate of learning and memory: 59.9
  Infarction area: 23.1%
  Nerve regeneration rate: 87%
  Space exploration distance: 56.2 cm
[2]; blood, read-out: Vinpocetine content in the blood
  concentration at 0.5 h: 84400 ng/mL
[2]; brain, read-out: Vinpocetine content in the brain tissue
  concentration at 0.5 h: 124 ng/mL

## stilbene glucoside
[8]
  Improvement rate of learning and memory: 31.6 ± 21.0%
  Nerve regeneration rate: 81.2 ± 35.6%
[9]
  Content of stilbene glucoside in brain tissues: 40.2 ± 16.1 ng/g
  Plasma concentration of stilbene glucoside: 3350 ± 680 ng/mL
